“Also recorded” adds a separate entry of the source.
Columns and labels:
Type in all cases: cell-based, human
HREC = assay: Cellular toxicity in LE-treated HREC; conditions: highest concentration of LE tested (50 μM)
sVCAM-1 = assay: ELISA for sVCAM-1 in supernatants of LE-treated HREC; conditions: HREC with or without LPS activation; LE 0, 10, 25 & 50 μM, 3 days; p≦0.05 (FIG. 2A)
Procedure: (§1) HREC were treated with LE (10, 25 and 50 μM) for 3 days. Supernatants were removed and microcentrifuge (Beckman Microfuge R) 1000 RPM for 10 min (4° C. after which they were stored at −70° C. until needed. ELISA kits (R&D systems) for human vascular endothelial growth factor (VEGF), soluble intracellular adhesion molecule (sICAM-1) and soluble vascular cell adhesion molecule (sVCAM-1) were used according to the manufacturer's instructions.

occludin = assay: Western blot analysis of occludin in cell lysates; conditions: LE 0, 10 & 50 μM; daily administration for 3 days necessary to maintain effect
Procedure: Cells were treated with LE (0, 10 & 50 μM) for either 3 days or LE (0, 10 & 50 μM) was replenished everyday for 3 days. Cells were lysed and protein levels determined/adjusted (see above). SDS PAGE was performed on cell lysates and then separated proteins were transferred on to a nitrocellulose (NC) paper (Invitrogen). NC paper was blocked with 3% non-fat milk in phosphate buffered saline (PBS) for 1 hour and then probed with specific anti bodies to occludin (Rabbit anti-occludin polyclonal and monoclonal antibodies, Zymed); Goat anti-occludin (Santa Cruz). NC paper was then incubated with secondary horseradish peroxidase conjugated antibody for 1 hour and the bands were visualized using DAB (3,3′-diaminobenzidine) (Vector Laboratories) or cheminluminescence (SuperSignal West Dura, Pierce).

sICAM-1 = assay: ELISA for sICAM-1 in supernatants of LE-treated HREC; conditions: HREC with or without LPS activation; LE 0, 10, 25 & 50 μM, 3 days; p≦0.05 (FIG. 2B)
Procedure: as §1

VEGF = assay: ELISA for VEGF in supernatants of LE-treated HREC; conditions: LE 0, 10, 25 & 50 μM, 3 days
Procedure: as §1

ZO-1 = assay: Immunohistochemistry of tight junction protein ZO-1 in VEGF-treated HREC; conditions: LE 10 & 50 μM for 1 hour, then VEGF 20 ng/ml for 1 hour, listed as LE
Procedure: Human retina endothelial cells were seeded onto an 8-well glass chamber and allowed to become 80-90% confluent. Cells were treated with or without LE for 1 hour and then treated with VEGF (20 ng/ml) for 1 hour. HREC were immediately fixed and stained with specific antibodies to occludin and zonula occluden-1 (Zymed). FITC-conjugated secondary antibodies (R&D Systems) were used to visualize tight junction distribution/integrity.

CCOC(=O)O[C@]1(C(=O)OCCl)CC[C@H]2[C@@H]3CCC4=CC(=O)C=C[C@]4(C)[C@H]3[C@@H](O)C[C@@]21C [Loteprednol etabonate]
cellular toxicity (HREC): no apparent cellular toxicity
expression of sVCAM-1 (sVCAM-1): significantly down regulated
total content of occludin (occludin): increased
expression of sICAM-1 (sICAM-1): significantly down regulated
expression of VEGF (VEGF; HREC with LPS activation, p≦0.01 (FIG. 1A)): significantly down regulated
expression of VEGF (VEGF; HREC without LPS activation, p≦0.01 (FIG. 1B)): significantly down regulated
effect on VEGF-induced disruption/redistribution of ZO-1 (tight junction) (ZO-1): reversed the effect of VEGF tight junction disruption; also recorded: inhibited the effect of VEGF-induced disruption of ZO-1
